Results taken from patent publication EP3915971A1, “PHENYL-S(O)N-PHENYLAMIDINES AND THE USE THEREOF AS FUNGICIDES” (Bayer Aktiengesellschaft, priority 2020, dated 2021).

How the values were obtained:
[1] = LogP measurement by HPLC on reversed phase columns (EEC directive 79/831 Annex V.A8); type: physicochemical; settings: reversed phase HPLC columns
In short: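 Reversed-phase HPLC with LC-UV per EEC directive 79/831 Annex V.A8, linear 10–95% acetonitrile gradient. Aqueous phase was 0.1% formic acid (acidic), 0.001 molar ammonium acetate (neutral) or 0.1% phosphoric acid (acidic), by method.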

Phakospora pachyrhizi = experiment: in vivo preventive test on Phakospora pachyrhizi (soybean rust); settings: Glycine max, 264 h; 500 ppm of active ingredient; preventive spray on young soybean plants, inoculation after 24 hours, evaluated 11 days after inoculation; 0% = control plants, 100% = no disease; read-out: efficacy
Procedure: Example A: in vivo preventive test on Phakospora pachyrhizi (soybean rust) [table] The active ingredients were made soluble and homogenized in a mixture of Dimethyl sulfoxide/Acetone/ /Tween® 80 and then diluted in water to the desired concentration. The young plants of soybean were treated by spraying the active ingredient prepared as described above. Control plants were treated only with an aqueous solution of Acetone/Dimethyl sulfoxide/ Tween® 80. After 24 hours, the plants were contaminated by spraying the leaves with an aqueous suspension of Phakospora pachyrhizi spores. The contaminated soybean plants were incubated for 24 hours at 24°C and at 100% relative humidity and then for 10 days at 24°C and at 70-80% relative humidity. The test was evaluated 11 days after the inoculation. 0% means an efficacy which corresponds to that of the control plants while an efficacy of 100% means that no disease was observed.

[2] = method [a]: LC-UV, acidic range, 0.1% formic acid in water and acetonitrile as eluent (linear gradient 10% to 95% acetonitrile)
[3] = method [b]: LC-UV, neutral range, 0.001 molar ammonium acetate solution in water and acetonitrile as eluent (linear gradient 10% to 95% acetonitrile)

With `CCN(C)C=Nc1cc(C)c(Sc2ccccc2C#N)cc1C(C)C` [Example I-101, N'-[4-[(2-cyanophenyl)thio]-2-isopropyl-5-methylphenyl]-N-ethyl-N-methylmethanimidamide] the chromatographic logP [1, 2] was 1.72, the chromatographic logP [1, 3] was 5.3 and the pest or weed control at 500 ppm (Phakospora pachyrhizi) was no less than 70%.

`CCc1cc(Sc2ccccc2C#N)c(C)cc1N=CN(C)CC` [Example I-102, N'-[4-[(2-cyanophenyl)thio]-2-ethyl-5-methylphenyl]-N-ethyl-N-methylmethanimidamide] gave a chromatographic logP [1, 2] of 1.58, a chromatographic logP [1, 3] of 4.95 and a pest or weed control at 500 ppm (Phakospora pachyrhizi) of no less than 70%.

`CCc1cc(Sc2ccccc2Cl)c(C)cc1N=CN(C)CC` [Example I-103, N'-[4-[(2-chlorophenyl)thio]-2-ethyl-5-methylphenyl]-N-ethyl-N-methylmethanimidamide] gave a chromatographic logP [1, 2] of 1.99, a chromatographic logP [1, 3] of 6.2 and a pest or weed control at 500 ppm (Phakospora pachyrhizi) of no less than 70%.
